Data from patent publication US6468977B1, “Thiadiazole compounds useful as inhibitors of cysteine activity dependent enzymes” (Apotex Inc., priority 1998, dated 2002).
Where a name gives a salt, the structure may show the parent alone.

Columns and labels:
Cathepsin B = target: T1, Cathepsin B (Homo sapiens, UniProt P07858); assay: Inhibition of cathepsin B, enzyme inactivation kinetics; type: biochemical; conditions: 25° C.; for k3 / kinact/KI / k3/Ki (second order rate of inhibition): pH 6.0; for Ki: pH 6.0, substrate N-Cbz-Phe-Arg 7-amido-4-methylcoumarin 100 μM; for kinact/KI: read-out: k3/Ki (second order rate of inhibition)
T1 construct: purchased Athens Research and Technology, Inc
Experimental: Enzyme assays and kinetic measurements.
Enzyme regeneration. Cathepsin B (Athens Research and Technology, Inc.) was regenerated by incubation with 2.5 mM dithioerythritol, 2.5 mM EDTA and 0.005% (v/v) Brij-35 in 50 mM potassium phosphate pH 6.0 for 5 min. at 25° C. The excess of dithioerythritol was removed by size exclusion chromatography on a NAP-10 column (Pharmacia) equilibrated with 20 mM sodium acetate pH 5.0 containing 10 mM EDTA. Enzyme activated in this way was used within several hours.
Measurement of inactivation constants:
The reactions were incubated at 25° C. […] The reaction progress curves were recorded continuously over five half-lives. […] Briefly, the reaction progress curves were analyzed by non-linear regression to the exponential equation (2) and pseudo-first order rate coefficients (kapp.) were calculated for each inhibitor concentration. [drawing 36] Fluorescence=Ae^−k^app.^t+B (2)
Second order rate for inhibition (ki/Ki), ki and Ki were determined from equation (3) by plotting (I/kapp.) vs. [I]; [formula]
where Km is the Michaelis-Menten constant, [I] is inhibitor concentration and [S] is substrate concentration.

[1] = system: IL-1 induced proteoglycan degradation of articular cartilage; assay: IL-1-induced proteoglycan degradation of articular cartilage explants in vitro; type: cell-based, calf; conditions: 1×10^−6 M, IL-1 50 ng/ml, 72 h, p=0.023
Experimental: The effect of Apo501 on IL-1 (interleukin) induced proteoglycan degradation of articular cartilage from normal calf joints was investigated in-vitro. Articular cartilage was sliced aseptically from the distal forelimb joints of less than 6-month old calves. […] The pooled, punched cartilage was washed and incubated in 20 ml of Ham's F12 medium with 5% FBS and 3% antibiotics for 72 hr at 37° C. for recovery.
Recovered explants were washed and replaced with a fresh medium. 20 μl (10 μCi/ml) of sodium [^35S] sulfate was added and cartilage explants incubated for 72 h at 37° C. to radiolabel proteoglycans. The explants was washed thoroughly (5 times) to remove free radioisotope and incubated in serum free, F-12 medium (3% Ab) overnight. Explants were then incubated in quadruplicate in fresh, serum free mediums containing varied concentrations of Apo-501 (10^−7, 10^−6, 10^−5, and 10^−4) for 24 h. […] The extent of proteoglycan degradation in each cartilage treated with different concentrations of Apo501 was determined by measuring the radioactivity of [^35S] sulfate-glycosaminoglycans by a liquid scintillation counter. Sample of 100 μl medium was added to 5 ml of scintillation cocktail (Ready Safe, Beckmann) and counted. Proteoglycan degradation was expressed as radiolabelled glycosaminoglycans released into the media (counts per min per ml) per dry weight (mg) of cartilage.

Transglutaminase = assay: Inhibition of transglutaminase, hydroxamate procedure, residual activity; type: biochemical; conditions: 100 μM (0.1 mM, 10% MeOH), one hour of incubation
Experimental: Inhibition of transglutaminase by compounds of formula I (Enzyme Assay).
Transglutaminase activity is measured by the […] hydroxamate procedure (J. Biol. Chem., 1971, 246, 1093). The tested compounds were dissolved in methanol and added to a buffered solution of purified Transglutaminase to give a final concentration of 0.1 mM (10% MeOH). After on hour of incubation, the solution was assayed for residual activity using the standard activity assay.

SMILES | melting point [°C] | k3 (Cathepsin B) [s⁻¹] | Ki (Cathepsin B) [µM] | kinact/KI (Cathepsin B) [M⁻¹ s⁻¹] | k3/Ki (second order rate of inhibition) (Cathepsin B) [M⁻¹ s⁻¹] | Reduction of IL-1-induced degradation of newly synthesized proteoglycan [1] [%] | Inhibition of the enzyme (residual activity) (Transglutaminase)
COc1nsc(N[C@@H](CC(C)C)C(=O)N2CCC[C@H]2C(=O)O)n1 [Example 11A, N-(3-methoxy-[1,2,4]thiadiazol-5-yl)-L-leucyl-L-proline] | 89 to 92 |  |  |  |  |  | 
CC[C@H](C)[C@H](Nc1nc(OC)ns1)C(=O)N1CCC[C@H]1C(=O)OC [Example 12A, N-(3-methoxy-[1,2,4]thiadiazol-5-yl)-L-iso-leucyl-L-proline methyl ester] | 129 to 130 |  |  |  |  |  | 
CC[C@H](C)[C@H](Nc1nc(OC)ns1)C(=O)N1CCC[C@H]1C(=O)O [Example 13, N-(3-methoxy-[1,2,4]thiadiazol-5-yl)-L-iso-leucyl-L-proline] | 112 to 114 |  |  |  |  |  | 
CC[C@H](C)[C@H](Nc1nc(C(=O)c2ccccc2)ns1)C(=O)N1CCC[C@H]1C(=O)O [Example 16, N-[3-benzoyl-[1,2,4]thiadiazol-5-yl]-L-iso-leucyl-L-proline] | 132 to 134 |  |  |  |  |  | 
CC(C)C[C@H](Nc1nc(-c2ccccc2)ns1)C(=O)N1CCC[C@H]1C(=O)O [apo5O9, N-(3-Phenyl-[1,2,4]thiadiazol-5-yl)-L-leucyl-L-proline] |  | 0.013 | 74 | 175 |  |  | 
COc1nsc(NC(=O)[C@H](Cc2ccccc2)NC(=O)OCc2ccccc2)n1 [apo201, 3-methoxy-5-(N-carbobenzyloxy-L-phenylalaninamido)-[1,2,4]thiadiazole] |  | 0.013 | 21 |  | 658 |  | 
CC(C)CC(Nc1nc(C(=O)O)ns1)C(=O)N1CCCC1C(=O)O (stereo not shown) [apo310] |  | 0.089 | 300 | 293 |  |  | 
COc1nsc(N[C@@H](CC(C)C)C(=O)N2CCC[C@H]2C(=O)O)n1 [apo501, N-{(3-methoxy)-[1,2,4]thiadiazol-5-yl}-L-leucyl-L-proline. tris(hydroxymethyl)methylamine salt] |  | 0.015 | 2.6 | 5630 |  | 60 | 
COc1nsc(NC(=O)N[C@@H](CC(C)C)C(=O)N2CCC[C@H]2C(=O)O)n1 [apo503] |  | 0.014 | 390 |  | 36 |  | 
COc1nsc(NC(=O)[C@H](C)NC(=O)[C@H](Cc2ccccc2)NC(=O)OCc2ccccc2)n1 [apo504, 3-methoxy-5-(N-carbobenzyloxy-L-phenylalanyl-L-alaninamido)-[1,2,4]thiadiazole] | 161 to 162 | 0.032 | 37 | 864 |  |  | completely inhibits
Cc1nsc(N[C@@H](CC(C)C)C(=O)N2CCC[C@H]2C(=O)O)n1 [apo510, N-(3-Methyl-[1,2,4]thiadiazol-5-yl)-L-leucyl-L-proline] |  | 0.026 | 447 | 55 |  |  | 
COc1nsc(NC(=O)NC(CC(C)C)C(=O)NCCC(C)C)n1 (stereo not shown) [apo1073, 5-{3-methoxy-1,2,4-thiadiazolyl}carbamoyl-leucyl isoamylamide] |  | 0.032 | 367 |  | 84 |  | 
